# Test results taken from publication PMC4941420, “A Rational Approach for the Identification of Non-Hydroxamate HDAC6-Selective Inhibitors” (Scientific Reports, 2016).
# Assays:
# HDAC4 = target: T1, HDAC4 (Homo sapiens, UniProt P56524); test: In vitro enzymatic assay HDAC4 (Fluor de Lys); type: biochemical; settings: average of at least 2 independent experiments in duplicates ± SEM
# T1 construct: purchased Sigma Aldrich or Reaction Biology Corporation
# [1] = test system: class I HDACs (HeLa nuclear extracts); test: HDAC activity of HeLa nuclear extracts (Fluor de Lys); type: biochemical, human; settings: 100 μM, average of at least 3 independent experiments in duplicates (Table 1)
# HDAC6 = target: T2, HDAC6 (Homo sapiens, UniProt Q9UBN7); test: In vitro enzymatic assay HDAC6 (Fluor de Lys); type: biochemical
# T2 construct: purchased Sigma Aldrich or Reaction Biology Corporation
# T2 sequence (Q9UBN7 1-1215): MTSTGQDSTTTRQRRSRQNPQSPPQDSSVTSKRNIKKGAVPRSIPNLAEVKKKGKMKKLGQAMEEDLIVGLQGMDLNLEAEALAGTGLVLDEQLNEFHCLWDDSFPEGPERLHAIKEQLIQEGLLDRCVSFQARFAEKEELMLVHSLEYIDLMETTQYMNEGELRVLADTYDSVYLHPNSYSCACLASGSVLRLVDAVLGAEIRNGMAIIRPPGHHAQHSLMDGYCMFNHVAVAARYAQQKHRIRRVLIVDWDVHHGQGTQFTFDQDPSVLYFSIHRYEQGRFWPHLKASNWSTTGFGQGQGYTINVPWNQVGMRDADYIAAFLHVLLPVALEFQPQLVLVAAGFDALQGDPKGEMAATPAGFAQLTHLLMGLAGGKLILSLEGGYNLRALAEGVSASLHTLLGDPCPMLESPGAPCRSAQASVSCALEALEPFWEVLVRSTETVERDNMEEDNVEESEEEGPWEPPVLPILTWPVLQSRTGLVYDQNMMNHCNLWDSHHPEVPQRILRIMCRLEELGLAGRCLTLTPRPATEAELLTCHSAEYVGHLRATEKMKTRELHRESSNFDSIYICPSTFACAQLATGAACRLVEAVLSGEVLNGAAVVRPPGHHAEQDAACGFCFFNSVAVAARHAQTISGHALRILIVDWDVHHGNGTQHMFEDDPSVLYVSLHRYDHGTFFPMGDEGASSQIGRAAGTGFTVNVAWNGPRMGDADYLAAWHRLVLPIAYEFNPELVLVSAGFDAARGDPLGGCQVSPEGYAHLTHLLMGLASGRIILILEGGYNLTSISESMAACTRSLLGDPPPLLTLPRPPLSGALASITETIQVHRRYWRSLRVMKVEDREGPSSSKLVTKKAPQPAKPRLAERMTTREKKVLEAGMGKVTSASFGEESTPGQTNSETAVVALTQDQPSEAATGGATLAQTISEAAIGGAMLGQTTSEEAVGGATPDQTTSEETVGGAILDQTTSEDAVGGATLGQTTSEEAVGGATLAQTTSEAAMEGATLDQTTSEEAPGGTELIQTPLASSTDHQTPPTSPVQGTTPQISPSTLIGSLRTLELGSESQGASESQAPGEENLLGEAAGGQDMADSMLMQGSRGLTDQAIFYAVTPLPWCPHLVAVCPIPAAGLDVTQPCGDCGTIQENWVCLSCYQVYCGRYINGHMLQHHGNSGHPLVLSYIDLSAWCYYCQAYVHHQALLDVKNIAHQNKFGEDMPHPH
# HDAC2 = target: T3, HDAC2 (Homo sapiens, UniProt Q92769); test: In vitro enzymatic assay HDAC2 (Fluor de Lys); type: biochemical; settings: average of at least 2 independent experiments in duplicates ± SEM
# T3 construct: purchased Sigma Aldrich or Reaction Biology Corporation
# T3 sequence (Q92769 whole entry): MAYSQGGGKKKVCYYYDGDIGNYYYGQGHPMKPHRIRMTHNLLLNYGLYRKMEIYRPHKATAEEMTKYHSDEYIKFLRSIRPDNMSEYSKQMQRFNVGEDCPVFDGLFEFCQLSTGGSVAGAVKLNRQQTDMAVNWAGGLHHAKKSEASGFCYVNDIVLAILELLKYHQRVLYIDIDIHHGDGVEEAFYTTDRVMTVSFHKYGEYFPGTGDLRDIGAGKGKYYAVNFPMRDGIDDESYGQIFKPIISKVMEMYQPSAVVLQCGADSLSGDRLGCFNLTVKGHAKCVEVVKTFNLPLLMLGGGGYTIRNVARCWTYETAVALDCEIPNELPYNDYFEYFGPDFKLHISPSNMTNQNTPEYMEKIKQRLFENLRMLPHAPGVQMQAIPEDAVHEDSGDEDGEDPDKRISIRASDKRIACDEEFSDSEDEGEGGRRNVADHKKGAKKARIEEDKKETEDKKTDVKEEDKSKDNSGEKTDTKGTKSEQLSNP
# [2] = test system: α-tubulin acetylation in HeLa cells; test: Acetyl-α-tubulin sandwich ELISA in HeLa cells; type: cell-based, human; settings: 48 h
# Experimental: The acetyl-α-tubulin sandwich ELISA Kit (Pathscan® #7204, Cell Signalling) was used to determine tubulin acetylation levels, and Western blotting was used to evaluate histone H4 acetylation, both methods applied to lysates of treated and non-treated HeLa cells (ATCC CCL-2). Cells were cultured in DMEM medium, 4.5 g/L glucose, L-glutamine (Invitrogen), supplemented with 10% heat-inactivated fetal bovine serum (FBS, Biowest), 100 units/mL penicillin, and 100 μg/mL streptomycin, and 1% non-essential amino acids (Invitrogen) at 37 °C with 5% CO2. Prior to ELISA experiments, cells were seeded into 6-well plates at 150,000 cells/well and transfected with the HDAC6-GFP construct (pEGFP.N1-HDAC6, Addgene)[58], using the Lipofectamine 2000 reagent (Invitrogen). Cells were then treated with test compounds, standards or vehicle (0.5% DMSO in culture medium) for 48 h. After the incubation time, cells were washed with cold DPBS (Invitrogen) and lysates were obtained by recovering cells in cold lysis buffer provided in the ELISA kit, supplemented with a protease inhibitor tablet (SigmaFast, Sigma Aldrich). Briefly, cells were harvested in DPBS and centrifuged. The cell pellet was suspended in 100 μL lysis buffer, vortexed, and kept on melting ice for 30 min. Lysates were then obtained by recovering the supernatant after a centrifugation step of 10 min at 11,000 g, 4 °C. Protein concentration was determined by fluorimetry using the Qubit protein assay kit (Invitrogen). Cell lysates were tested at 1 mg/mL following the instructions provided by the ELISA kit manufacturer. For the Western blotting, cells were seeded into 100 mm Petri dishes and treated for 6 h. After the incubation time, cells were washed with cold DPBS (Invitrogen) supplemented with a protease inhibitor tablet (Sigma Fast, Sigma Aldrich), and lysates were obtained by recovering cells in 100 μL cold lysis buffer (10 mM Hepes pH 7.9, 1.5 mM MgCl2, 10 mM KCl, 0.5 mM DTT, 1.5 mM PMSF, 0.2M HCl) the same way as described above. […]
# T1 sequence (P56524 whole entry): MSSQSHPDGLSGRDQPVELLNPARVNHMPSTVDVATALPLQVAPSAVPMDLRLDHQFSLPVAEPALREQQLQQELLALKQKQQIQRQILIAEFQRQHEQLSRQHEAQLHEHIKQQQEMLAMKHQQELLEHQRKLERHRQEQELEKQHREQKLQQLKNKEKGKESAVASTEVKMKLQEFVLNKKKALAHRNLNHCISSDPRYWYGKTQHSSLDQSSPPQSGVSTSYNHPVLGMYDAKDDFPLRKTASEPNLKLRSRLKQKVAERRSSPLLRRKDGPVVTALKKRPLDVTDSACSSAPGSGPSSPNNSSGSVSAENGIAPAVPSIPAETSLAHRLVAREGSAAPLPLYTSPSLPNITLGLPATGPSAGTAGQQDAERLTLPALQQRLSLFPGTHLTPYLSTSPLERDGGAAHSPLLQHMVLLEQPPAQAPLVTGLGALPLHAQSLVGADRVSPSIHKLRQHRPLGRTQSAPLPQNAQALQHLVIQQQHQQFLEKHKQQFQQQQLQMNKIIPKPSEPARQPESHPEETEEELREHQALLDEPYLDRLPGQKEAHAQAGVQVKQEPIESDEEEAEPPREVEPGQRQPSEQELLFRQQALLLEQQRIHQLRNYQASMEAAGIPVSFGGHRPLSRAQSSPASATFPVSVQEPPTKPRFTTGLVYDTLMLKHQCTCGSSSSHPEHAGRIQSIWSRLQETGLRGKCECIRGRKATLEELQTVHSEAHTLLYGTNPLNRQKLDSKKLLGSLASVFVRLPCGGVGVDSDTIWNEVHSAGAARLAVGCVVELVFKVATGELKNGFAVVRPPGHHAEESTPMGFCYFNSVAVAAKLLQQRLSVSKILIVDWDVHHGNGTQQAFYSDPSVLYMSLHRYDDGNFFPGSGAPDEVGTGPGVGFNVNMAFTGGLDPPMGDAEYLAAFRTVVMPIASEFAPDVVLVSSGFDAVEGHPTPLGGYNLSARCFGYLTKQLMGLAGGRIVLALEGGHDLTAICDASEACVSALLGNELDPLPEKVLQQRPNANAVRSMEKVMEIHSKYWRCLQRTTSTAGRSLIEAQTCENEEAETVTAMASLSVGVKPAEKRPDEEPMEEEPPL
smiles,measurement,setting,value
NNC(=O)c1ccc(COc2ccccc2Cl)cc1 [AK-14],IC50,HDAC4,> 300 µM
same,HeLa % of inhibition at 100 μM,[1],2.7 ± 1.3%
same,IC50,HDAC6; average of at least 2 independent experiments in duplicates ± SEM,12.8 ± 5.4 µM
same,inhibition at 100 µM,HDAC6; read-out: HDAC6 % of inhibition at 100 µM,70.7 ± 6%
same,IC50,HDAC2,> 1000 µM
same,acetylated tubulin levels,[2]; 250 μM,less remarkable effect
same,acetylated tubulin levels,[2]; 500 μM,significantly increase
